Data: US9302996B2, “Continuous arycyclic compound” (MITSUBISHI TANABE PHARMA CORPORATION, priority 2010, dated 2016)
Where two headings read alike, the source gives them in different places. Marks after values point to notes of the source that are not given here.

Key:
Assay type in all cases: in vivo
C57BL/6J mice = assay: Antifeeding activity (high fat diet intake up to 4 hours); conditions: Mus musculus, male C57BL/6J mice, 5 mg/kg oral, food ingested up to 4 hours, read-out: Antifeeding rate (5 mg/kg)
ICR mice = assay: Triglyceride (TG) in blood plasma increase-inhibiting action due to lipid administration; conditions: Mus musculus; male ICR mice, 5 mg/kg oral, lipid (Intralipos 20%) after 30 minutes, plasma TG 2 hours after lipid; read-out: Inhibiting rate of TG-increase in blood plasma (5 mg/kg)
Summary of the method: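 Male ICR mice (6–9 weeks), fasted overnight, dosed orally with compound in 0.2% CMC; oral lipid emulsion (10 mL/kg) 30 min later. Plasma TG from tail vein before and 2 h after lipid load; rise in TG expressed as percent inhibition versus vehicle group.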

KK-Ay mice = assay: Weight gain-inhibiting action, hypoglycemic effect, insulin in blood plasma lowering action in KK-Ay mice; conditions: male KK-Ay mice, high fat diet, 2 weeks; for inhibition in vivo at 30 mg/kg: Mus musculus, 336 h, 30 mg/kg/day oral
Description: To 8 weeks-old male KK-Ay mice were provided high fat diet (Oriental Yeast Co., Ltd, 60 cal % fat), and Test compound suspended in 0.2% carboxymethylcellulose solution was orally administered once a day. Oral administration was continued for 2 weeks, and a weight gain-inhibiting rate of the Test compound was calculated by using a weight gain amount of the solvent control group during the test period as 100%. After final administration, the mice were fasted overnight, and blood was collected from tail vein. Measurement of a blood-sugar level was carried out by using glucose Cα Test Wako (Wako Pure Chemical Industries, Ltd.), and measurement of insulin in blood plasma was carried out by using a mouse insulin measurement kit (Morinaga Institute of Biological Science, Inc.).

[1] = read-out: Hypoglycemic action (30 mg/kg/day)
[2] = read-out: Insulin in blood plasma-lowering action (30 mg/kg/day)
[3] = read-out: Weight gain-inhibiting action (30 mg/kg/day)
[4] = administration dose of 10 mg/kg/day oral

| Structure (SMILES) | inhibition in vivo at 5 mg/kg (C57BL/6J mice) | inhibition in vivo at 5 mg/kg (ICR mice) | inhibition in vivo at 30 mg/kg (KK-Ay mice; [1]) | inhibition in vivo at 30 mg/kg (KK-Ay mice; [2]) | inhibition in vivo at 30 mg/kg (KK-Ay mice; [3]) | Hypoglycemic action (KK-Ay mice; [4]) | Insulin in blood plasma-lowering action (KK-Ay mice; [4]) | Weight gain-inhibiting action (KK-Ay mice; [4]) |
| --- | --- | --- | --- | --- | --- | --- | --- | --- |
| Cc1cc(OCC(C)(C)C(=O)O)ncc1-c1ccc(-c2ncc(C3(C(F)(F)F)CC3)[nH]2)c(F)c1 [Example 54-4), 3-{[5-(3-fluoro-4-{5-[1-(trifluoromethyl)cyclopropyl]-1H-imidazol-2-yl]phenyl)-4-methylpyridin-2-yl}oxy}-2,2-dimethylpropanoic acid] | 46% | 74% | 74% | 93% | 113% |  |  |  |
| Cc1cc(OCC(C)(C)C(=O)O)ncc1-c1ccc(-c2ncc(C(F)(F)F)[nH]2)c(F)c1 [Example 62-3), 3-[(5-{3-fluoro-4-[5-(trifluoromethyl)-1H-imidazol-2-yl]phenyl}-4-methylpyridin-2-yl)oxy]-2,2-dimethylpropanoic acid] | 63% | 85% | 80% | 95% | 161% |  |  |  |
| Cc1cc(OCC(C)(C)C(=O)O)ncc1-c1ccc(-c2ncc(CC(C)C)[nH]2)c(F)c1 [Example 119] | 51% | 67% | 40% | 28% | 36% |  |  |  |
| CC(C)(COc1ccc(-c2ccc(-c3ncc(C(F)(F)F)[nH]3)cc2)cn1)C(=O)O [Example 3-3), 2,2-dimethyl-3-[(5-{4-[5-(trifluoromethyl)-1H-imidazol-2-yl]phenyl}pyridin-2-yl)oxy]propanoic acid] | 76% | 78% | 41% | 51% | 52% |  |  |  |
| CC(C)(COc1ccc(-c2cnc(-c3ncc(C(F)(F)F)[nH]3)cn2)cc1)C(=O)O [Example 7-7), 2,2-dimethyl-3-(4-{5-[5-(trifluoromethyl)-1H-imidazol-2-yl]pyrazin-2-yl}phenoxy)-propanoic acid] | 75% | 71% | 62% | 58% | 66% |  |  |  |
| Cc1cc(OCC(C)(C)C(=O)O)ncc1-c1cnc(-c2ncc(C(F)(F)F)[nH]2)c(C)c1 [Example 114] | 59% | 64% | 48% | 60% | 45% |  |  |  |
| CC(C)(COc1ncc(-c2ccc(-c3ncc(C(F)(F)F)[nH]3)c(F)c2)cc1F)C(=O)O [Example 84] | 64% | 75% | 65% | 76% | 48% |  |  |  |
| Cc1cc(OCC(C)(C)C(=O)O)ncc1-c1ccc(-c2ncc(CC(C)C)[nH]2)nc1 [Example 117] | 55% | 57% | 36% | 35% | 31% |  |  |  |
| Cc1cc(OCC(C)(C)C(=O)O)ncc1-c1cnc(-c2ncc(C(F)(F)F)[nH]2)cn1 [Example 95-6), 2,2-dimethyl-3-[(4-methyl-5-{5-[5-(trifluoromethyl)-1H-imidazol-2-yl]pyrazin-2-yl}pyridin-2-yl)oxy]propanoic acid] | 83% | 70% | 66% | 58% | 75% |  |  |  |
| Cc1cc(OCC(C)(C)C(=O)O)ncc1-c1ccc(-c2ncc(C(F)(F)F)[nH]2)cn1 [Example 72] | 65% | 85% | 38% | 28% | 43% |  |  |  |
| Cc1cc(OCC(C)(C)C(=O)O)ncc1-c1ccc(-c2ncc(CC3CC3)[nH]2)c(F)c1 [Example 96-2), 3-[(5-{4-[5-(cyclopropylmethyl)-1H-imidazol-2-yl]-3-fluorophenyl}-4-methylpyridin-2-yl)oxy]-2,2-dimethylpropanoic acid] | 58% | 48% | 66% | 71% | 75% |  |  |  |
| CC(C)Cc1cnc(-c2ccc(-c3ccc(OCC(C)(C)C(=O)O)cc3)nc2)[nH]1 [Example 26] | 79% | 67% | 40% | 27% | 44% |  |  |  |
| CC(C)(COc1cnc(-c2ccc(-c3ncc(C(F)(F)F)[nH]3)nc2)cn1)C(=O)O [Example 92] | 66% | 74% | 63% | 58% | 60% |  |  |  |
| Cc1cc(OCC2(C(=O)O)CCC2)ccc1-c1ccc(-c2ncc(C(F)(F)F)[nH]2)cn1 [Example 70] | 59% | 67% | 52% | 27% | 45% |  |  |  |
| Cc1cc(OCC(C)(C)C(=O)O)ncc1-c1ccc(-c2ncc(C(F)(F)F)[nH]2)cc1 [Example 73] | 82% | 88% | 40% | 69% | 62% |  |  |  |
| CCC(CC)(COc1ccc(-c2ccc(-c3ncc(C(F)(F)F)[nH]3)nc2)cn1)C(=O)O [Example 23] | 63% | 85% | -13% | 14% | 39% |  |  |  |
| CC(C)(COc1ccc(-c2ccc(-c3ncc(C4(C(F)(F)F)CC4)[nH]3)cn2)cc1)C(=O)O [Example 6-3), sodium 2,2-dimethyl-3-[4-(5-{5-[1-(trifluoromethyl)cyclopropyl]-1H-imidazol-2-yl]pyridin-2-yl}phenoxy)propanoate] | 71% | 78% | 63% | 72% |  |  |  |  |
| CC(C)(COc1ccc(-c2ccc(-c3ncc(C(F)(F)C(F)(F)F)[nH]3)cn2)cc1)C(=O)O [Example 69] | 87% | 85% |  |  |  | 61%^# | 37%^# | 43%^# |
| Cc1cc(OCC(C)(C)C(=O)O)ncc1-c1ccc(-c2ncc(C(F)(F)F)[nH]2)c(Cl)c1 [Example 63-3), 3-[(5-{3-chloro-4-[5-(trifluoromethyl)-1H-imidazol-2-yl]phenyl}-4-methylpyridin-2-yl)oxy]-2,2-dimethylpropanoic acid] | 83% | 60% | 77% | 90% | 115% |  |  |  |
| CC(C)(COc1ccc(-c2ccc(-c3ncc(C(F)(F)F)[nH]3)nn2)cc1)C(=O)O [Example 87-7), 2,2-dimethyl-3-(4-{6-[4-(trifluoromethyl)-1H-imidazol-2-yl]pyridazin-3-yl}phenoxy)-propanoic acid] | 59% | 57% | 35% | 19% | 22% |  |  |  |
